This note sets out measurements from patent publication US20050124056A1, “Novel oxidase” (priority 2002, published 2005).

One assay addresses NOX1-b (Homo sapiens, UniProt Q9Y5S8). The note with it: 1 μM added 30 minutes before the addition of cytochrome C; NOX1-b expressing NIH3T3 cells.
The subject of assay [1] is COX-2 mRNA in NOX1-b expressing cells. To be noted: final concentration of 1 μM, RT-PCR 3 hours thereafter; EtBr staining.
Protocol: Using the mRNA extraction method shown in Example 1, respective cDNA samples were prepared from the vacant vector expressing cells and NOX1-b expressing cells. By synthesizing probe primers coding for the COX-2-specific sequences represented by SEQ ID NO:9 and SEQ ID NO:10, an RT-PCT reaction of 94° C. for 1 minute and 45 cycles consisting of 94° C. for 10 seconds, 55° C. for 20 seconds and 72° C. for 30 seconds, was carried out on each of the vacant vector expressing cell- and NOX1-b expressing cells-derived samples using a DNA polymerase (r Taq DNA polymerase; mfd. by Toyobo).
Assay [2] relates to TNF-α mRNA in NOX1-b expressing cells. To be noted: pretreated for 3 hours with 1 μM; RT-PCR, EtBr staining.
Protocol: On each of the cDNA samples prepared in Example 6 and using a DNA polymerase (r Taq DNA polymerase; mfd. by Toyobo), RT-PCR reaction of 94° C. for 1 minute, 45 cycles of consisting of 94° C. for 10 seconds and 55° C. for 20 seconds and 72° C. for 30 seconds, was carried out.

NOX1-b, sequence (Q9Y5S8 1-515 isoform Q9Y5S8-3): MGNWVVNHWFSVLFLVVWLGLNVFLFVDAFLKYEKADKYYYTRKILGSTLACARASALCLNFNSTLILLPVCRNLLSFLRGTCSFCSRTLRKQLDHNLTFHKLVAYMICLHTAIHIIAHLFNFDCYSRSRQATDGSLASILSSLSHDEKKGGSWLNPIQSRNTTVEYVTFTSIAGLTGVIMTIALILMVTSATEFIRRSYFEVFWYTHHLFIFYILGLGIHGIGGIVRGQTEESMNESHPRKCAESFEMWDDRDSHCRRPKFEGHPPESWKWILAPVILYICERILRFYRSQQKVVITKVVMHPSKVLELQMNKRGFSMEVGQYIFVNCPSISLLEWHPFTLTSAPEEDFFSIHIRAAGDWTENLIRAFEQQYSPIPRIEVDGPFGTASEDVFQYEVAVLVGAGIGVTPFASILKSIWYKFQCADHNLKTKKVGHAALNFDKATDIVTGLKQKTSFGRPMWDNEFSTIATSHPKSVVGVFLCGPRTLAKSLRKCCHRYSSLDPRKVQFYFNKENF
NOX1-b, sequence (Q61462 whole entry partner): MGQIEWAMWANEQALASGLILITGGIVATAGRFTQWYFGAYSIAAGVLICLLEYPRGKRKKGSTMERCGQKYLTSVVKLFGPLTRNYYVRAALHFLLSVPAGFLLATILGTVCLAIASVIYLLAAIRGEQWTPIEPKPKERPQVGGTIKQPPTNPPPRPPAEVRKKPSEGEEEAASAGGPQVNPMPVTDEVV

With `c1ccc2c(c1)[I+]c1ccccc1-2` [DPI, diphenylene iodonium chloride], at NOX1-b, the “ROS producing activity (absorbance at 550 nm, integrated values after 1 hour)” value is on record as “considerably inhibited”. The “induction of COX-2 expression by NOX1-b expression” value in assay [1] is listed as “inhibited”. The “induction of TNF-α expression in NOX1-b expressing cells” value in assay [2] was “inhibited”.
